In assay [1] the test system is Phosphorylation of ERK1/2 in MIA PaCa-2 cells. Briefly: Phospho-ERK1/2 MSD assay in MIA PaCa-2 cells. It is filed as cell-based. The note with it: Homo sapiens. An outline of the steps: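 Following a 2 or 4 h incubation with titrated compound, cells receive a 10 min pulse of 10 ng/mL EGF. Phospho-ERK1/2 in RIPA lysates is then quantified by MSD immunoassay, and IC50 values come from a four-parameter logistic model.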

The test system of assay [2] is Phosphorylation of ERK1/2 in A549 cells. Briefly: Phospho-ERK1/2 MSD assay in A549 cells. It is filed as cell-based. The note with it: Homo sapiens. Here is the method:
For compounds in Table 89, the following assay conditions were employed:
Phospho-ERK1/2 MSD Assay:
Sixteen hours prior to compound treatment, MIA PaCa-2 or A549 cells were seeded in 96-well cell culture plates at a density of 25,000 cells/well and incubated at 37° C., 5% CO2. A compound dose-response titration was diluted in growth media, added to appropriate wells of a cell culture plate, and then incubated at 37° C., 5% CO2 for 2 or 4 hours (see Table 15). Following compound treatment, cells were stimulated with 10 ng/mL EGF (Roche 11376454001) for 10 min, washed with ice-cold Dulbecco's phosphate-buffered saline, no Ca^2+ or Mg^2+ (ThermoFisher Scientific 14190144), and then lysed in RIPA buffer (50 mM Tris-HCl pH 7.5, 1% Igepal, 0.5% sodium deoxycholate, 150 mM NaCl, and 0.5% sodium dodecyl sulfate) containing protease inhibitors (Roche 4693132001) and phosphatase inhibitors (Roche 4906837001). Phosphorylation of ERK1/2 in compound-treated lysates was assayed using Phospho-ERK1/2 Whole Cell Lysate kits (Meso Scale Discovery K151DWD) according to the manufacturer's protocol. Assay plates were read on a Meso Scale Discovery Sector Imager 6000, and data were analyzed using a 4-parameter logistic model to calculate IC50 values.

Assay [3] has as its target GDP-bound KRAS protein (aa 1-169), containing both G12C and C118A amino acid substitutions (Homo sapiens, UniProt P01116, C118A/G12C). Briefly: Coupled nucleotide exchange assay (SOS-mediated, AlphaScreen). The format is biochemical. Particulars: for Coupled exchange IC50 (5 min): 5 min compound pre-incubation; for Coupled exchange IC50 (2 h): 2 h compound pre-incubation. In general terms: Bead proximity is the source of the signal in Alpha formats.

The mark [4] stands for this setting: MIA PaCa-2, 2 h, read-out: p-ERK IC50 (2 h; MIA PaCa-2), 2 h compound treatment.
Where [5] appears, read: A549, 2 h, read-out: p-ERK IC50 (2 h; A549), 2 h compound treatment.
Setting [6] is: MIA PaCa-2, 4 h, read-out: p-ERK IC50 (4 h; MIA PaCa-2), 4 h compound treatment.
[7] abbreviates: A549, 4 h, read-out: p-ERK IC50 (4 h; A549), 4 h compound treatment.

Like-named read-outs stand apart in the source and are kept apart here.

The text below walks through data of patent publication US11090304B2 (Amgen Inc., priority 2018, dated 2021).

GDP-bound KRAS protein (aa 1-169), containing both G12C and C118A amino acid substitutions, sequence (P01116 1-169 isoform P01116-2 G12C/C118A): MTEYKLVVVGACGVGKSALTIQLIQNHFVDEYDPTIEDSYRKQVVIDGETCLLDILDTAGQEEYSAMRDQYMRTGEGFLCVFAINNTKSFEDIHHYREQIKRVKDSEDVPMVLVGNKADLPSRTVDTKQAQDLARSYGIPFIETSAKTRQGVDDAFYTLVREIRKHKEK

As usually defined, the IC50 is the concentration that inhibits the measured activity by half. Regarding `C=CC(=O)N1CCN(c2nc(=O)n(-c3nccn3C(C)C)c3nc(-c4c(O)cccc4F)c(Cl)cc23)[C@@H](C)C1` [Example 54-13, 6-chloro-7-(2-fluoro-6-hydroxy-phenyl)-4-((2S)-2-methyl-4-(2-propenoyl)-1-piperazinyl)-1-(1-(2-propanyl)-1H-imidazol-2-yl)pyrido[2,3-d]pyrimidin-2(1H)-one], the IC50 in assay [1] (setting [4]) is 2.56 µM; in assay [2] (setting [5]), not below 10 µM. In assay [3], the “Coupled exchange IC50 (5 min)” value was 0.811 | nda μM.
In the case of `CC(C)c1ccccc1-n1c(=O)nc(N2CCN(C(=O)/C=C/CN(C)C)CC2)c2cc(Cl)c(-c3c(O)cccc3F)cc21` [Example 92, 6-Chloro-4-(4-((2E)-4-(dimethylamino)-2-butenoyl)-1-piperazinyl)-7-(2-fluoro-6-hydroxyphenyl)-1-(2-(2-propanyl)phenyl)-2(1H)-quinazolinone], the IC50 in assay [1] (setting [6]) was 1.55 µM; in assay [2] (setting [7]), 108 µM. For the same molecule, in assay [3], the “Coupled exchange IC50 (2 h)” value is given as “nda | 0.123 μM”.
Turning to `C=CC(=O)N1CCN(c2nc(=O)n(-c3c(CC)cccc3CC)c3nc(-c4ccccc4F)c(Cl)cc23)[C@@H](C(=O)OC)C1` [Example 55-30, methyl (2R)-1-(6-chloro-1-(2,6-diethylphenyl)-7-(2-fluorophenyl)-2-oxo-1,2-dihydropyrido[2,3-d]pyrimidin-4-yl)-4-(2-propenoyl)-2-piperazinecarboxylate], the IC50 is 1.61 µM in assay [1] (setting [4]) and not below 10 µM in assay [2] (setting [5]). The “Coupled exchange IC50 (5 min)” value in assay [3] is on record as 1.95 | nda μM.
Turning to `C=CC(=O)N1CCN(c2nc(=O)n(CC(C)(C)C(F)(F)F)c3nc(-c4c(C)ccc5[nH]ncc45)c(Cl)cc23)[C@@H](C)C1` [Example 60-34, 6-chloro-7-(5-methyl-1H-indazol-4-yl)-4-((2S)-2-methyl-4-(2-propenoyl)-1-piperazinyl)-1-(3,3,3-trifluoro-2,2-dimethylpropyl)pyrido[2,3-d]pyrimidin-2(1H)-one], the IC50 is 0.508 µM in assay [1] (setting [4]) and not below 10 µM in assay [2] (setting [5]). Besides, in assay [3], the “Coupled exchange IC50 (5 min)” value is listed as 0.478 | nda μM.
The corresponding values for `C=CC(=O)N1CCN(c2nc(=O)n(CC3(C(F)(F)F)CC3)c3nc(-c4c(O)cccc4F)c(Cl)cc23)[C@@H](C)C1` [Example 54-5, 6-chloro-7-(2-fluoro-6-hydroxyphenyl)-4-((2S)-2-methyl-4-(2-propenoyl)-1-piperazinyl)-1-((1-(trifluoromethyl)cyclopropyl)methyl)pyrido [2,3-d]pyrimidin-2(1H)-one] are 0.554 µM, not below 10 µM and 0.445 | nda μM.
For the molecule `C=CC(=O)N1CCN(c2nc(=O)n(-c3c(Cl)cccc3Cl)c3nc(-c4c(O)cccc4F)c(Cl)cc23)[C@@H](C)C1` [Example 54-33, 6-chloro-1-(2,6-dichlorophenyl)-7-(2-fluoro-6-hydroxyphenyl)-4-((2S)-2-methyl-4-(2-propenoyl)-1-piperazinyl) pyrido[2,3-d]pyrimidin-2(1H)-one], the half-inhibitory concentration (IC50) is 0.215 µM in assay [1] (setting [4]) and not below 10 µM in assay [2] (setting [5]). Besides, in assay [3], the “Coupled exchange IC50 (5 min)” value is 0.176 | nda μM.
With `C=CC(=O)N1CCN(c2nc(=O)n(-c3nocc3C3CC3)c3nc(-c4c(O)cccc4F)c(Cl)cc23)[C@@H](C)C1` [Example 54-24, 6-chloro-1-(4-cyclopropyl-1,2-oxazol-3-yl)-7-(2-fluoro-6-hydroxyphenyl)-4-((2S)-2-methyl-4-(2-propenoyl)-1-piperazinyl) pyrido[2,3-d]pyrimidin-2(1H)-one], the IC50 in assay [1] (setting [4]) is 0.942 µM; in assay [2] (setting [5]), not below 10 µM. Besides, the “Coupled exchange IC50 (5 min)” value in assay [3] was 0.797 | nda μM.
In the case of `C=CC(=O)N1CCN(c2nc(=O)n(-c3ccccc3C(C)C)c3nc(Cl)c(Cl)cc23)[C@@H](C)C1` [Example 61-1, 6,7-Dichloro-4-((2S)-2-methyl-4-(2-propenoyl)-1-piperazinyl)-1-(2-(2-propanyl)phenyl)pyrido[2,3-d]pyrimidin-2(1H)-one], the IC50 in assay [1] (setting [4]) was 2.48 µM; in assay [1] (setting [6]) it was 0.992 µM; in assay [2] (setting [5]), not below 100 µM; in assay [2] (setting [7]), not below 11.1 µM. In addition, the “Coupled exchange IC50 (2 h)” value in assay [3] was “nda | 0.776 μM”.
Consider `C=CC(=O)N1CCN(c2nc(=O)n(-c3ccccc3C(C)C)c3nc(-c4cc(O)ccc4F)c(Cl)cc23)[C@@H](C)C1` [Example 54-88, 6-chloro-7-(2-fluoro-5-hydroxyphenyl)-4-((2S)-2-methyl-4-(2-propenoyl)-1-piperazinyl)-1-(2-(2-propanyl)phenyl)pyrido [2,3-d]pyrimidin-2(1H)-one], for which the values for the IC50 in assay [1] (setting [4]) and in assay [2] (setting [5]) were 0.101 µM and not below 10 µM, respectively. The “Coupled exchange IC50 (5 min)” value in assay [3] is 0.139 | nda μM.
For the molecule `C=CC(=O)N1CCN(c2nc(=O)n(-c3ccncc3C3CC3)c3nc(-c4c(O)cccc4F)c(Cl)cc23)[C@@H](C)C1` [Example 54-59, 6~chloro-1-(3-cyclopropyl-4-pyridinyl)-7-(2-fluoro-6-hydroxyphenyl)-4-((2S)-2-methyl-4-(2-propenoyl)-1-piperazinyl) pyrido[2,3-d]pyrimidin-2(1H)-one], the IC50 is 0.712 µM in assay [1] (setting [4]) and not below 10 µM in assay [2] (setting [5]). Also, the “Coupled exchange IC50 (5 min)” value in assay [3] is listed as 0.22 | nda μM.
Take `C=CC(=O)N1CCN(c2nc(=O)n(C(C(C)C)C(C)C)c3nc(-c4ccccc4F)c(Cl)cc23)CC1` [Example 60-31, 6-chloro-1-(2,4-dimethyl-3-pentanyl)-7-(2-fluorophenyl)-4-(4-(2-propenoyl)-1-piperazinyl)pyrido[2,3-d]pyrimidin-2(1H)-one]: the IC50 came to 1 µM in assay [1] (setting [4]), 0.71 µM in assay [1] (setting [6]), 40.9 µM in assay [2] (setting [5]) and 86.6 µM in assay [2] (setting [7]). Further, in assay [3], the “Coupled exchange IC50 (5 min)” value was 0.919 µM. Besides, the “Coupled exchange IC50 (2 h)” value in assay [3] amounted to 0.115 µM.
As for `C=CC(=O)N1CCN(c2nc(=O)n(-c3c(C)cccc3C)c3nc(-c4c(O)cccc4F)c(Cl)cc23)CC1` [Example 8-8, 6-chloro-1-(2,6-dimethylphenyl)-7-(2-fluoro-6-hydroxyphenyl)-4-(4-(2-propenoyl)-1-piperazinyl)pyrido[2,3-d]pyrimidin-2(1H)-one], the results for the IC50 in assay [1] (setting [4]), in assay [1] (setting [6]) and in assay [2] (setting [7]) were 0.327 µM, 0.143 µM and not below 100 µM, respectively. The “Coupled exchange IC50 (5 min)” value in assay [3] amounted to 0.653 µM. For the same molecule, in assay [3], the “Coupled exchange IC50 (2 h)” value worked out at 0.117 µM.
With `C=CC(=O)N1C[C@H](C)N(c2nc(=O)n(-c3c(C)ccnc3C(C)C)c3nc(-c4c(O)cccc4F)c(F)cc23)[C@@H](C)C1` (single isomer, unassigned) [Example 75-3], the IC50 is 0.027 µM in assay [1] (setting [4]) and not below 10 µM in assay [2] (setting [5]). In addition, the “Coupled exchange IC50 (5 min)” value in assay [3] is 0.029 | nda μM.
On to `C=CC(=O)N1CCN(c2nc(=O)n(-c3ccccc3C(C)C)c3nc(-c4ccccc4F)c(F)cc23)[C@@H](C)C1` (single isomer, unassigned) [Example 57-7-2], for which the IC50 in assay [1] (setting [4]) is 0.236 µM; in assay [2] (setting [5]) it was not below 10 µM. The “Coupled exchange IC50 (5 min)” value in assay [3] is 0.384 | nda μM.
With `C=CC(=O)N1CCN(c2nc(=O)n(-c3c(CC)cccc3CC)c3nc(C4CC4)c(Cl)cc23)[C@@H](C)C1` [Example 94, 6-Chloro-7-cyclopropyl-1-(2,6-diethylphenyl)-4-((2S)-2-methyl-4-(2-propenoyl)-1-piperazinyl)pyrido[2,3-d]pyrimidin-2(1H)-one], the IC50 in assay [1] (setting [4]) was 1.51 µM; in assay [2] (setting [5]), not below 10 µM. For the same molecule, the “Coupled exchange IC50 (5 min)” value in assay [3] worked out at 0.781 µM. Also, the “Coupled exchange IC50 (2 h)” value in assay [3] came out at 0.112 µM.
